From PubChem BioAssay (NCI)
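The concentration for 50% growth inhibition is given as GI50. TGI: concentration producing complete growth inhibition.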

Columns and labels:
Experiment in all cases: NCI anticancer screen, dose series, 384-well format
CAKI-1 renal = test system: CAKI-1 renal
CCRF-CEM leukemia = test system: CCRF-CEM leukemia
PC-3 prostate = test system: PC-3 prostate
M14 melanoma = test system: M14 melanoma
BT-549 breast = test system: BT-549 breast
SR leukemia = test system: SR leukemia
UACC-257 melanoma = test system: UACC-257 melanoma
MDA-MB-468 breast = test system: MDA-MB-468 breast
SF-295 CNS = test system: SF-295 CNS
RPMI-8226 leukemia = test system: RPMI-8226 leukemia
K-562 leukemia = test system: K-562 leukemia
NCI/ADR-RES ovarian = test system: NCI/ADR-RES ovarian
SK-MEL-28 melanoma = test system: SK-MEL-28 melanoma
HCC-2998 colon = test system: HCC-2998 colon
ACHN renal = test system: ACHN renal
U251 glioblastoma = test system: U251 glioblastoma
SW-620 colon = test system: SW-620 colon
NCI-H460 NSCLC = test system: NCI-H460 NSCLC
NCI-H226 lung = test system: NCI-H226 lung
A498 renal = test system: A498 renal
NCI-H522 lung = test system: NCI-H522 lung
MALME-3M melanoma = test system: MALME-3M melanoma
SNB-19 CNS = test system: SNB-19 CNS
MDA-MB-435 melanoma = test system: MDA-MB-435 melanoma
DU-145 prostate = test system: DU-145 prostate
IGROV1 ovarian = test system: IGROV1 ovarian
HT29 colon = test system: HT29 colon
SK-MEL-2 melanoma = test system: SK-MEL-2 melanoma
SF-268 CNS = test system: SF-268 CNS

Compound `CCN1[C@@H](C(=O)NC23CCC(C(=O)O)(CC2)CC3)[C@H](c2cccc(Cl)c2F)[C@]2(C(=O)Nc3cc(Cl)ccc32)C12CCCCC2` has a GI50 (CAKI-1 renal) of less than 10 nM, a TGI (CAKI-1 renal) of 418 nM and a GI50 (CCRF-CEM leukemia) of 1420 nM. The TGI (CCRF-CEM leukemia) was 2750 nM, the GI50 (PC-3 prostate) was 2880 nM and the TGI (PC-3 prostate) was 9.4 µM. For the same compound, the GI50 (M14 melanoma) was 35 nM, the TGI (M14 melanoma) was 2370 nM and the GI50 (BT-549 breast) was 1930 nM. For the same compound, the TGI (BT-549 breast) was 6.16 µM, the GI50 (SR leukemia) was less than 10 nM and the GI50 (UACC-257 melanoma) was 148 nM. The TGI (UACC-257 melanoma) was 431 nM, the GI50 (MDA-MB-468 breast) was 1700 nM and the TGI (MDA-MB-468 breast) was 3.61 µM. For the same compound, the GI50 (SF-295 CNS) was 1240 nM, the TGI (SF-295 CNS) was 2670 nM and the GI50 (RPMI-8226 leukemia) was 1260 nM. The TGI (RPMI-8226 leukemia) was 2510 nM, the GI50 (K-562 leukemia) was 2830 nM and the TGI (K-562 leukemia) was 11 µM. It also gave a GI50 (NCI/ADR-RES ovarian) of 3.64 µM, a TGI (NCI/ADR-RES ovarian) of 13.6 µM and a GI50 (SK-MEL-28 melanoma) of 2760 nM. For the same compound, the TGI (SK-MEL-28 melanoma) was 7.42 µM, the GI50 (HCC-2998 colon) was 1270 nM and the TGI (HCC-2998 colon) was 2910 nM. The GI50 (ACHN renal) was 19.4 nM, the TGI (ACHN renal) was 390 nM and the GI50 (U251 glioblastoma) was 3.07 µM. The TGI (U251 glioblastoma) was 11.5 µM, the GI50 (SW-620 colon) was 3.79 µM and the TGI (SW-620 colon) was 13.4 µM. For the same compound, the GI50 (NCI-H460 NSCLC) was 29.4 nM, the TGI (NCI-H460 NSCLC) was 1080 nM and the GI50 (NCI-H226 lung) was less than 10 nM. For the same compound, the TGI (NCI-H226 lung) was 81.7 nM, the GI50 (A498 renal) was 13.6 nM and the TGI (A498 renal) was 1090 nM. For the same compound, the GI50 (NCI-H522 lung) was 2410 nM, the TGI (NCI-H522 lung) was 6.92 µM and the GI50 (MALME-3M melanoma) was 14 nM. For the same compound, the TGI (MALME-3M melanoma) was 659 nM, the GI50 (SNB-19 CNS) was 3.09 µM and the TGI (SNB-19 CNS) was 12.8 µM. For the same compound, the GI50 (MDA-MB-435 melanoma) was 2260 nM, the TGI (MDA-MB-435 melanoma) was 5.65 µM and the GI50 (DU-145 prostate) was 3.39 µM. The TGI (DU-145 prostate) was 12.3 µM, the GI50 (IGROV1 ovarian) was 244 nM and the TGI (IGROV1 ovarian) was 2770 nM. It also gave a GI50 (HT29 colon) of 3.52 µM, a TGI (HT29 colon) of 13.9 µM and a GI50 (SK-MEL-2 melanoma) of 638 nM. It also gave a TGI (SK-MEL-2 melanoma) of 2160 nM and a GI50 (SF-268 CNS) of 2340 nM.
